In patent US20070293472A1, “Novel 14 and 15 Membered Ring Compounds” (Glaxo Group Limited, priority 2003, published 2007) one finds MIC data, which are given here for six compounds.

Where a name gives a salt, the structure may show the parent alone. Some results are limits rather than exact numbers.

What all share (assay): MIC, standard broth dilution method in microtitre
What all share (assay type): cell-based

Experiment [1] has as its system S. pyogenes 3565. The conditions noted are these: Streptococcus pyogenes. As to the method:
(§1) Using a standard broth dilution method in microtitre, compounds were tested for antibacterial activity. The compounds in the above examples gave minimum inhibitory concentrations (MICs) less than 1 microgram per millilitre against erythromycin-sensitive and erythromycin-resistant strains of Streptococcus pneumoniae and Streptococcus pyogenes.
(§2) In addition, the MIC (μg/mL) of test compounds against various organisms was determined including:
(§3) S. aureus Smith ATCC 13709, S. pneumoniae SP030, S. pyogenes 3565, E. faecalis ATCC 29212, H. influenzae ATCC 49247, M. catarrhalis ATCC 23246.

The subject of experiment [2] is S. aureus Smith ATCC 13709. To be noted: Staphylococcus aureus, ATCC13709. The method, then:
as §1, §2, §3

Experiment [3] concerns E. faecalis ATCC 29212. The conditions noted are these: Enterococcus faecalis, ATCC29212. The method, then:
as §1, §2, §3

In experiment [4] the test system is S. pneumoniae SP030. To be noted: Streptococcus pneumoniae. The method, then:
as §1, §2, §3

For experiment [5], the system named is erythromycin-resistant strains of Streptococcus pneumoniae. The method, then: as §1
For experiment [6], the system named is erythromycin-resistant strains of Streptococcus pyogenes. As to the method: as §1
For experiment [7], the system named is H. influenzae ATCC 49247. To be noted: Haemophilus influenzae, ATCC49247. As to the method: as §1, §2, §3
Experiment [8] deals with M. catarrhalis ATCC 23246. To be noted: Moraxella catarrhalis, ATCC23246. As to the method: as §1, §2, §3

`CC[C@H]1OC(=O)[C@H](C)[C@@H](O[C@H]2C[C@@](C)(OC)[C@@H](OC(=O)CCNCCCc3cc4c(cc3F)c(=O)c(C(=O)O)cn4CC)[C@H](C)O2)[C@H](C)[C@@H](O[C@@H]2O[C@H](C)C[C@H](N(C)C)[C@H]2O)[C@](C)(OC)C[C@@H](C)C(=O)[C@H](C)[C@@H](O)[C@]1(C)O` [Example 1, 4″-O-{3-[3-(3-Carboxy-1,4-dihydro-1-ethyl-6-fluoro-4-oxo-7-quinolinyl)propylamino]propionyl}-6-O-methylerythromycin A]: the MIC in experiment [1], in experiment [2], in experiment [3] and in experiment [4] was at most 1 µg/mL throughout.

As for `CC[C@@H]1OC(=O)[C@H](C)[C@H](O[C@@H]2C[C@](C)(OC)[C@H](OC(=O)CCNCCCc3cc4c(cc3F)c(=O)c(C(=O)O)cn4CC)[C@H](C)O2)[C@@H](C)[C@H](O[C@@H]2O[C@H](C)C[C@H](N(C)C)[C@@H]2O)[C@](C)(O)C[C@H](C)CN(C)[C@H](C)[C@@H](O)[C@]1(C)O` [Example 2, 4″-O-{3-[3-(3-Carboxy-1,4-dihydro-1-ethyl-6-fluoro-4-oxo-7-quinolinyl)propylamino]propionyl}-azithromycin tris trifluoroacetate salt], the MIC in experiment [1], in experiment [2], in experiment [3] and in experiment [4] was at most 1 µg/mL in each case.

Regarding `CC[C@@H]1OC(=O)[C@H](C)[C@H](O[C@@H]2C[C@](C)(OC)[C@H](OC(=O)CCNCCCc3ccc4c(c3)c(=O)c(C(=O)O)cn4CC)[C@H](C)O2)[C@@H](C)[C@H](O[C@@H]2O[C@H](C)C[C@H](N(C)C)[C@@H]2O)[C@](C)(O)C[C@H](C)CN(C)[C@H](C)[C@@H](O)[C@]1(C)O` [Example 5, 4″-O-{3-[3-(3-Carboxy-1,4-dihydro-1-ethyl-4-oxo-6-quinolinyl)propylamino]propionyl}-azithromycin], the MIC in experiment [5] and in experiment [6] was at most 0.25 µg/mL throughout.

Take `CC[C@@H]1OC(=O)[C@H](C)[C@H](O[C@@H]2C[C@](C)(OC)[C@H](OC(=O)CCNCCCc3ccc4c(c3)c(=O)c(C(=O)O)cn4CC)[C@H](C)O2)[C@@H](C)[C@H](O[C@@H]2O[C@H](C)C[C@H](N(C)C)[C@@H]2O)[C@](C)(O)C[C@H](C)CN(C)[C@@H](C)[C@H]2OC(=O)O[C@@]12C` [Example 6, 4″-O-{3-[3-(3-Carboxy-1-dihydro-1-ethyl-4-oxo-6-quinolinyl)propylamino]propionyl}-azithromycin-11,12-carbonate]: the MIC in experiment [1] was at most 1 µg/mL; in experiment [2] it was at most 1 µg/mL; in experiment [7], at most 2 µg/mL; in experiment [3] it was at most 1 µg/mL; in experiment [8], at most 2 µg/mL; in experiment [4] it was at most 1 µg/mL. For the same compound, the MIC in experiment [5] and in experiment [6] was at most 0.25 µg/mL in each case.

With `CC[C@@H]1OC(=O)[C@H](C)[C@H](O[C@@H]2C[C@](C)(OC)[C@H](OC(=O)CCNCCCc3ccc4c(c3)c(=O)c(C(=O)O)cn4CC)[C@H](C)O2)[C@@H](C)[C@H](O[C@@H]2O[C@H](C)C[C@H](N(C)C)[C@@H]2O)[C@](C)(OC)C[C@H](C)C(=O)[C@@H](C)[C@H]2NC(=O)O[C@@]12C` [Example 7, 4″-O-{3-[3-(3-Carboxy-1,4-dihydro-1-ethyl-4-oxo-6-quinolinyl)propylamino]-propionyl}-6-O-methyl-11-desoxy-11-(R)-amino-erythromycin A 11,12-carbamate diformate salt], the MIC was at most 2 µg/mL in experiment [7], at most 2 µg/mL in experiment [8], at most 0.25 µg/mL in experiment [5] and at most 0.25 µg/mL in experiment [6].

`CC[C@@H]1OC(=O)[C@H](C)[C@H](O[C@@H]2C[C@](C)(OC)[C@H](OC(=O)CCNCCCc3ccc4c(c3)c(=O)c(C(=O)OC)cn4CC)[C@H](C)O2)[C@@H](C)[C@H](O[C@@H]2O[C@H](C)C[C@H](N(C)C)[C@@H]2O)[C@](C)(OC)C[C@H](C)C(=O)[C@@H](C)[C@H]2NC(=O)O[C@@]12C` [Example 8, 4″-O-{3-[3-(3-Carboxy-1,4-dihydro-1-ethyl-4-oxo-6-quinolinyl)propylamino]propionyl}-6-O-methyl-11-desoxy-11-(R)-amino-erythromycin A 11,12-carbamate methyl ester diformate salt]: the MIC in experiment [1] is at most 1 µg/mL; in experiment [2], at most 1 µg/mL; in experiment [3], at most 1 µg/mL; in experiment [4], at most 1 µg/mL; in experiment [5], at most 0.25 µg/mL; in experiment [6], at most 0.25 µg/mL.
